Assay results from article PMC8474116, “Discovery of Novel Acetamide-Based Heme Oxygenase-1 Inhibitors with Potent In Vitro Antiproliferative Activity” (Journal of Medicinal Chemistry, 2021).
In brackets after ≈: the same amount, converted by molar mass.

How the values were obtained:
hERG potassium channel = biological target: T1, hERG potassium channel (Homo sapiens, UniProt Q12809); assay: hERG human potassium ion channel binding (Eurofins)
T1 construct: Eurofins Scientific (contract assay) 4094
Source text: (§1) In vitro ADMET testing has been performed at Eurofins Scientific.

U87MG cells = assay: Wound-healing assay, U87MG; assay type: cell-based, human; conditions: 10 μM, vs control at 24 and 48 h
Method: U87MG cells grown to confluence in 6-well dishes (5 × 10^4 cells/well) were scratched with a 200 μL pipette tip. Cells were cultured in a 1% serum medium with or without 10 μM of 7l. Quantitative assessment of the wound area was performed under an inverted microscope, as previously described.[63] The distance that the advancing cells had moved into the wound area was measured after 24 and 48 h. The migration was calculated as the average number of cells observed in three random of high-power wounded fields/per well in duplicate wells and expressed in percentage of control (% of control).

[1] = Aqueous solubility in simulated gastric fluid (Eurofins); assay type: physicochemical
Method: In vitro ADMET testing has been performed at Eurofins Scientific. Aqueous solubility in simulated gastric fluid (catalogue product number 2061), intrinsic clearance in liver microsome-human (catalogue product number 607), CYP2D6 and CYP3A4 inhibition (catalogue product numbers 1338 and 391, respectively), and hERG human potassium ion channel binding (catalogue product number 4094) were conducted at Eurofins following their experimental protocols (https://www.eurofins.com/).

human CYP3A4 = biological target: T2, human CYP3A4 (Homo sapiens, UniProt P08684); assay: CYP3A4 inhibition (Eurofins); assay type: in vitro ADME
T2 construct: Eurofins Scientific (contract assay) 391
Source text: as §1

human CYP2D6 = biological target: T3, human CYP2D6 (Homo sapiens, UniProt P10635); assay: CYP2D6 inhibition (Eurofins); assay type: in vitro ADME
T3 construct: Eurofins Scientific (contract assay) 1338
Source text: as §1

HO = HO enzymatic activity in U87MG cell line (cell lysate, bilirubin formation); assay type: cell-based, human; conditions: U87MG treated with 10 μM
Method: U87MG cells were incubated for 24 h in the presence or absence of 10 μM of compound 7l. Total HO activity in the cell lysate was determined by measuring the bilirubin formation using the difference in absorbance at 464–530 nm.[2] Reaction mixtures (500 μL) consisted of 20 mM of Tris–HCl, pH 7.4, 1 mg/mL of cell lysate, 0.5–2 mg/mL of biliverdin reductase, 1 mM of NADPH, 2 mM of glucose 6-phosphate (G6P), 1 U of G6P dehydrogenase, 25 μM of hemin, and 10 μL of DMSO. Incubations were carried out for 60 min at 37 °C in a circulating water bath in the dark. Reactions were stopped by adding 1 volume of chloroform. After recovering the chloroform phase, the amount of bilirubin formed was measured with a double-beam spectrophotometer as OD464–530 nm (extinction coefficient, 40 mM/cm for bilirubin). One unit of the enzyme was defined as the amount of enzyme catalyzing the formation of 1 nmol of bilirubin/mg protein/h.

[2] = Microsomal stability, human liver microsome assay (Eurofins); assay type: in vitro ADME; conditions: human liver microsomes, protein 0.1 mg/mL
Source text: as §1

HO-1 [3] = assay: HO-1 protein expression by Western blot, U87MG; assay type: cell-based, human; conditions: 10 μM, 48 h
Method: (§2) Proteins were extracted from total cell lysate, as previously described.[61] Briefly, cell lines were added to a buffer containing 20 mM Tris (pH 7.4), 2 mM EDTA, 0.5 mM EGTA, 50 mM mercaptoethanol, and […] sucrose supplemented with phosphatase and protease inhibitor cocktails (Roche Diagnostics, Monza, Italy). Subsequently, protein samples were sonicated twice for 20′ by using an ultrasonic probe, followed by centrifugation at 10 000g for 10 min at 4 °C. Sample proteins (30 μg) were diluted in 4X NuPage LDS sample buffer (Invitrogen, NP0007), heated at 80 °C for 5 min, and then separated on a Biorad Criterion XT 4–15% Bis–Tris gel (BIO-RAD) by electrophoresis and then transferred to a PVDF membrane (BIO-RAD). Blots were blocked using the Odyssey Blocking Buffer (LI-COR Biosciences) and probed with appropriate antibodies: HO-1 antibody (GeneTex GTX101147), goat polyclonal anti-VEGF (cat. no. sc-1836, Santa Cruz Biotechnology), and rabbit polyclonal anti-β-tubulin (cat n.sc-9104, Santa Cruz Biotechnology) and β-actin antibody (GeneTex GTX109639).
(§3) The secondary antibodies goat antirabbit (Odyssey, #926-32211; Odyssey #926-68021) and donkey antigoat IRDye 800CW (cat #926-32214; Li-Cor Biosciences) were used at 1:7000. Blots were scanned, and densitometric analysis was performed with the Odyssey Infrared Imaging System. Values were normalized to β-actin and to β-tubulin.

[4] = Bidirectional permeability (Caco-2); assay type: in vitro ADME; conditions: human
HO-1 [5] = assay: HO-1 protein expression by Western blot, DU145; assay type: cell-based; conditions: DU145, 10 μM, 48 h
Method: as §2, §3

HO-1 [6] = assay: HO-1 protein expression by Western blot, A172; assay type: cell-based, human; conditions: A172, 10 μM, 48 h
Method: as §2, §3

HO-1 [7] = assay: HO-1 protein expression by Western blot, A549; assay type: cell-based, human; conditions: A549, 10 μM, 48 h
Method: as §2, §3

DU145 cells = assay: MTT cell viability assay, DU145; assay type: cell-based; conditions: 48 h, 1 μM and 10 μM
Method: Experiments were performed on human GBM cell lines U87MG (ATCCC number #HTB-14) and A172 (ATCCC #CRL-1620) on DU145 (ATCC HTB-81) and human lung adenocarcinoma A549 (ATCC CCL-185-LUC2). All cell lines were obtained from the American Type Culture Collection (ATCC, Rockville, MD). Cells were grown in Dulbecco’s modified Eagle’s medium (DMEM) supplemented with 10% of heat-inactivated fetal bovine serum (FBS), 100 U/mL of penicillin, and 100 μg/mL of streptomycin (Sigma-Aldrich, Steinheim, Germany). Cells were incubated at 37 °C in a humidified atmosphere with 5% CO2.
The effect of selected compounds 7i and 7l–p on cell viability was assessed by performing an MTT assay. Cells were seeded into 96-well plates at a density of 7 × 10^3 cells/well in 100 μL of culture medium. After 24 h, cells were treated with selected compounds at three different concentrations (1 μM, 10 μM, and 50 μM) for 48 h. Following treatments, 0.5 mg/mL of 3-[4,5-dimethylthiazol-2-yl]-2,5-diphenyltetrazolium bromide (MTT) (Sigma-Aldrich) was added to each well and incubated for 4 h at 37 °C. Finally, dimethyl-sulfoxide (DMSO) was used to dissolve formazan salts, and absorbance was measured at 570 nm in a microplate reader (Biotek Synergy-HT). Eight replicate wells were used for each group.

[8] = Caco-2, pH 6.5/7.4, tested concentration 10 μM

T2 sequence (P08684 whole entry): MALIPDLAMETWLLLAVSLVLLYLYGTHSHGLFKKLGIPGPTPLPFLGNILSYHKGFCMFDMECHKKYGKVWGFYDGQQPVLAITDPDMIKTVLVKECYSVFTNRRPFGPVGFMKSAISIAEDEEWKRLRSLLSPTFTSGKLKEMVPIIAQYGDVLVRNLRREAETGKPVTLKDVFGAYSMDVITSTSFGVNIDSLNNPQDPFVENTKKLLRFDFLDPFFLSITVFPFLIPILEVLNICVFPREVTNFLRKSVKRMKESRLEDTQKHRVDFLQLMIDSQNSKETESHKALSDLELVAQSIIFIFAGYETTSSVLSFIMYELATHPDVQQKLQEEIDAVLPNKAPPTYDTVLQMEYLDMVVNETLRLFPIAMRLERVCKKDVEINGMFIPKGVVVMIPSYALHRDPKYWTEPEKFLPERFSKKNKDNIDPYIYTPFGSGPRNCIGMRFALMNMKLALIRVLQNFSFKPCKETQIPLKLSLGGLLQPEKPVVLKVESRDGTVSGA
T3 sequence (P10635 whole entry): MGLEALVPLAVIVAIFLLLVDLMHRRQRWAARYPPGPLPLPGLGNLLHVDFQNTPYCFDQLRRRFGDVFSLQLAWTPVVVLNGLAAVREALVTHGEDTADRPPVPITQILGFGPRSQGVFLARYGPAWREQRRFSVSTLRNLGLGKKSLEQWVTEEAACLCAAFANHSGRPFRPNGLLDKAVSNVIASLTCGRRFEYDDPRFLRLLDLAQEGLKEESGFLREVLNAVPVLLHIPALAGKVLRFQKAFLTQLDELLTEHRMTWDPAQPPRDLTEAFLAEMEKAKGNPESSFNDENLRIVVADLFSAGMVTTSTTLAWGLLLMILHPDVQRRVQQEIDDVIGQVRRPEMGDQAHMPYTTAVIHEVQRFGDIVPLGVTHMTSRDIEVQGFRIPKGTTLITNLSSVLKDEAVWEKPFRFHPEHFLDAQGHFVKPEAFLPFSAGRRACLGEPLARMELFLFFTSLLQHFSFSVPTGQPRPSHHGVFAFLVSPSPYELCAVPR
T1 sequence (Q12809 whole entry): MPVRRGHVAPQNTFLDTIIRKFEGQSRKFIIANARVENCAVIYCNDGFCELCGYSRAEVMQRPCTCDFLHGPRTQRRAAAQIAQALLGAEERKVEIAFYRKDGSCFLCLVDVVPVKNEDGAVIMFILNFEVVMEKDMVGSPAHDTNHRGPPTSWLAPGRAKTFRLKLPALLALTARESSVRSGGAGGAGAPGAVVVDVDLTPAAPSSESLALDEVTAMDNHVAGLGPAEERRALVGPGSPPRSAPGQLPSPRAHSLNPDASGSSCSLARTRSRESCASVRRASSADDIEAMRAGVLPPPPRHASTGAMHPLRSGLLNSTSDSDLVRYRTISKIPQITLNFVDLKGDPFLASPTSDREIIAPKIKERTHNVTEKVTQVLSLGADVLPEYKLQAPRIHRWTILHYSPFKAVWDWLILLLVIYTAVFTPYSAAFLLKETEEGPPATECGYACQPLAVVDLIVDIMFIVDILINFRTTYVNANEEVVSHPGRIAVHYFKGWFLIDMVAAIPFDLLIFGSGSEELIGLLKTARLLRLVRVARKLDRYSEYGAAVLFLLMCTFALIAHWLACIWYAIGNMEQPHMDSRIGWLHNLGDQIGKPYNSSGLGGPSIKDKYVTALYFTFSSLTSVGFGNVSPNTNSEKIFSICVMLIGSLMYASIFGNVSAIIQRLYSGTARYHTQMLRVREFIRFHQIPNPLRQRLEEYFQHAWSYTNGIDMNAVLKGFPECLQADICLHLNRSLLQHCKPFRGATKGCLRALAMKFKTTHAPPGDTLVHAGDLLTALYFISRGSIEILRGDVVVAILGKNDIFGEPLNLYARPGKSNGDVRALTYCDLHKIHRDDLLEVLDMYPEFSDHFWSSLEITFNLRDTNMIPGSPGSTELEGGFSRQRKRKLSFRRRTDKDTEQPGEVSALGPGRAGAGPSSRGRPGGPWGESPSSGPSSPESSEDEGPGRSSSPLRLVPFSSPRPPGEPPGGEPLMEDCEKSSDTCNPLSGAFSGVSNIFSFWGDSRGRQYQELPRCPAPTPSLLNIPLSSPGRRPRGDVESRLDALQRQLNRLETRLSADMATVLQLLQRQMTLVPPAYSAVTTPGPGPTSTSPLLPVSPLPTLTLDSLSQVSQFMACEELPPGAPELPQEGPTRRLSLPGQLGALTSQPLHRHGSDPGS

| Structure (SMILES) | inhibition at 1 µM (hERG potassium channel) | cell motility, wound-healing assay (in words) (U87MG cells) | solubility [1] | IC50 (human CYP3A4) | IC50 (human CYP2D6) | HO enzymatic activity in cell lysates (in words) (HO) | microsomal CLint [2] | half-life ([2]; read-out: microsomal stability t1/2) | HO-1 protein expression (in words) (HO-1 [3]) | efflux ratio at 10 μM ([4]; Caco-2, read-out: efflux ratio (Papp BA/Papp AB)) | Papp A→B at 10 µM [4, 8] | Papp B→A at 10 µM [4, 8] | melting point | HO-1 protein expression (in words) (HO-1 [5]) | HO-1 protein expression (in words) (HO-1 [6]) | HO-1 protein expression (in words) (HO-1 [7]) | cell viability reduction (in words) (DU145 cells) |
| --- | --- | --- | --- | --- | --- | --- | --- | --- | --- | --- | --- | --- | --- | --- | --- | --- | --- |
| CN(C(=O)Cn1ccnc1)C(c1ccccc1)c1ccc(Cl)cc1 (stereo not shown) [7l, N-((4-Chlorophenyl)(phenyl)methyl)-2-(1H-imidazol-1-yl)-N-methylacetamide] | 5.7% | drastically reduced | 196 µM (≈ 66.5 µg/mL) | 180 nM | 2500 nM | reduced HO activity | 58.3 µL/min/mg | 1.98 h | reduced HO-1 expression | 0.44 | 44.1 ×10⁻⁶ cm/s | 19.4 ×10⁻⁶ cm/s |  |  |  |  |  |
| CN(C(=O)Cn1ccnc1)C(c1ccccc1)c1ccc(I)cc1 (stereo not shown) [7n, 2-(1H-Imidazol-1-yl)-N-((4-iodophenyl)(phenyl)methyl)-N-methylacetamide] |  |  |  |  |  |  |  |  | enhanced its levels |  |  |  | 69 to 71 °C | reduced HO-1 protein expression | enhanced its levels |  |  |
| CN(C(=O)Cn1ccnc1)C(c1ccccc1)c1ccc(OCc2ccccc2)cc1 (stereo not shown) [7o, N-((4-(Benzyloxy)phenyl)(phenyl)methyl)-2-(1H-imidazol-1-yl)-N-methylacetamide] |  |  |  |  |  |  |  |  |  |  |  |  | 119 to 121 °C |  |  | upregulated its expression | had efficacies |
